The values that follow come from patent US20030092759A1, “Anticonvulsant derivatives useful for the treatment of restless limb syndrome and periodic limb movement disorder” (priority 2001, published 2003).

Each structure is given as a SMILES string. Where a name gives a salt, the structure may show the parent alone.

For one data set, the system named is RLS symptoms. The note with it: case study report, Hargrave and Beckley 1998; cited from earlier work.
The test system of the next data set is depression. Nature of the data set: clinical case study, concurrent depression (Example 1). Format: in vivo, human. The conditions noted are these: Example 1, patient; sertraline HCl 100 mg/day added to topiramate 75 mg/day. As to the method:
(§1) Prior to treatment, within 15 minutes of falling asleep, the patient was awakened by uncontrollable jerking of their legs. […] The patient had also used lorazepam and alprazolam to treat the RLS, with some benefit.
(§2) The patient was switched to topiramate, initially at 25 mg, with a gradual increase in dosage to 75 mg/day for treatment of the RLS. Sertraline HCl at 100 mg/day was added for the treatment of their concurrent depression. Lorazepam and alprazolam were discontinued. The RLS and depression symptoms were both reduced.

The subject of data set [1] is restless legs syndrome (RLS). Nature of the data set: clinical case studies of patients with restless legs syndrome. Type of data set: in vivo, human. The note with it: for benefit of earlier treatment of the RLS: before topiramate; for benefit in controlling the RLS, earlier treatment: used in the previous 15 years. As to the method:
The ability of the compounds of formula I to treat restless legs syndrome, restless arm syndrome and associated sleep disorders is based on the results of recent clinical case studies, as described in more detail below.
as §1, §2
In the previous 15 years, the patient had also used carisoprodol, chlordiazepoxide HCl, clorazepate dipotassium, meprobamate, phenobarbital, flurazepam HCl, promethazine, levodopa and carbidopa, with some benefit in controlling the RLS.
Topiramate was started at 25 mg/day and increased gradually to 300 mg/day during a six month period.
The patient was a person, with diagnosed recurrent unipolar depression, post traumatic stress disorder, panic disorder, nicotine, alcohol and cannabis dependency. The patient also complained of migraine headaches and restless leg syndrome.
The patient was started at 25 mg HS topiramate, with dosage increased to 100 mg HS and then further increased to a final dosage of 200 mg HS. Concurrent pharmacotherapy included clonazepam at 2 mg/day, desipramine HCl at 10 mg/day, clonidine at […] b.i.d., mirtazepine at 15 mg HS, triamcinolone acetonide prn, albuterol prn, potassium at […], A to Z multivitamin 1×/day and fluticasone propionate prn.

The subject of data set [2] is simple and complex partial seizures and secondarily generalized seizures. The note with it: adjunctive therapy or monotherapy; cited from earlier work.
The subject of the next data set is seizures. The note with it: several rodent models of epilepsy; cited from earlier work.
Another data set concerns kindled epilepsy. The note with it: animal model of kindled epilepsy; cited from earlier work.
The nature of data set [3]: side effects reported in the clinical case studies. Type of data set: in vivo, human. The conditions noted are these: Example 2, person; 5 mg/day for the RLS.

`CN[C@H]1CC[C@@H](c2ccc(Cl)c(Cl)c2)c2ccccc21` [Sertraline HCl]: the “change of RLS symptoms associated with the drug” value in the data set with RLS symptoms was “increase in RLS symptoms”. Besides, in the data set on depression, the depression symptoms result is “reduced”.
Consider `Cc1nnc2n1-c1ccc(Cl)cc1C(c1ccccc1)=NC2` [alprazolam], for which, in data set [1] (Example 1, patient), the “benefit of earlier treatment of the RLS” value is “some benefit”.
Regarding `C[C@@](Cc1ccc(O)c(O)c1)(NN)C(=O)O` [carbidopa], the “benefit in controlling the RLS, earlier treatment” value (“benefit in controlling the RLS” for short) in data set [1] (Example 2, person) was “some benefit”.
On to `CCCC(C)(COC(N)=O)COC(=O)NC(C)C` (stereo not shown) [carisoprodol], for which, in data set [1] (Example 2, person), the “benefit in controlling the RLS” value is “some benefit”.
The same measure, in the same setting: with `CNC1=Nc2ccc(Cl)cc2C(c2ccccc2)=[N+]([O-])C1` [chlordiazepoxide HCl] the entry was “some benefit”.
For `O=C1CN=C(c2ccccc2Cl)c2cc([N+](=O)[O-])ccc2N1` [clonazepam], in data set [1] (Example 2, person, 2-4 mg/day), the “effect on the RLS symptoms” value is given as “very little positive effect”.
For the compound `O=C(O)C1N=C(c2ccccc2)c2cc(Cl)ccc2NC1=O` (stereo not shown) [clorazepate dipotassium], the “benefit in controlling the RLS” value in data set [1] (Example 2, person) was “some benefit”.
`CCN(CC)CCN1C(=O)CN=C(c2ccccc2F)c2cc(Cl)ccc21` [flurazepam HCl]: in data set [1] (Example 2, person), the “benefit in controlling the RLS” value is on record as “some benefit”.
On the same count and under the same terms, with `N[C@@H](Cc1ccc(O)c(O)c1)C(=O)O` [levodopa] the entry was “some benefit”.
As to `O=C1Nc2ccc(Cl)cc2C(c2ccccc2Cl)=NC1O` (stereo not shown) [lorazepam], the “benefit of earlier treatment of the RLS” value in data set [1] (Example 1, patient) was “some benefit”.
Turning to `CCCC(C)(COC(N)=O)COC(N)=O` [meprobamate], the “benefit in controlling the RLS” value in data set [1] (Example 2, person) was “some benefit”.
The same measure, in the same setting: with `CC(CN1c2ccccc2Sc2ccccc21)N(C)C` (stereo not shown) [promethazine] the entry was “some benefit”.
On to `CC1(C)O[C@@H]2[C@@H](CO[C@@]3(COS(N)(=O)=O)OC(C)(C)O[C@@H]23)O1` [topiramate, 2,3:4,5-bis-O-(1-methylethylidene)-β-D-fructopyranose sulfamate], for which the “efficacy in treating seizures in clinical trials” value in data set [2] was “effective”. Moreover, the block of seizures result in the data set on seizures and in the data set with kindled epilepsy was “effectively block seizures” throughout. Further, the RLS symptoms result in data set [1] (Example 1, patient, topiramate 25 mg increased to 75 mg/day, with sertraline HCl 100 mg/day, lorazepam and alprazolam discontinued) is on record as “reduced”. In data set [1] (Example 2, person, 25 mg/day increased to 300 mg/day during six months), the “restless legs syndrome symptoms, patient report” value is reported as “successfully reduced”. Besides, the “effectiveness for RLS compared with carisoprodol, patient report” value in data set [1] (Example 3, person) is reported as “more effective than carisoprodol”. Moreover, the “effectiveness for RLS of topiramate and clonazepam in combination, patient report” value in data set [1] (Example 3, person, the two drugs in combination) is given as “more effective than either drug alone”. Also, in data set [1] (Example 3, person, topiramate 100 mg HS), the “effectiveness for restless leg syndrome compared with clonazepam 6 mg HS, patient report” value is “as effective as clonazepam 6 mg HS”.
Take `OC(CCN1CCCCC1)(c1ccccc1)C1CCCCC1` (stereo not shown) [trixenryphenidyl]: in data set [3], the side effects result is “dry mouth, blurred vision and amnesia”.
